Source: article PMC7827406, “Structure–Activity Relationship (SAR) Study of Spautin-1 to Entail the Discovery of Novel NEK4 Inhibitors” (International Journal of Molecular Sciences, 2021)
Like-named read-outs stand apart in the source and are kept apart here.

What was measured:
Experiment in all cases: biochemical
Parameters in all cases: Eurofins KinaseProfiler full panel at Km ATP, residual kinase activity (%) relative to DMSO
AMPKα1(h) = molecular target: T1, AMPKα1(h) (Homo sapiens, UniProt Q13131)
T1 construct: gene PRKAA1
Method in brief: (§1)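 Compounds screened at 10 µM in radiometric kinase activity assays at Km ATP, reported as remaining kinase activity (%). A KINOMEscan competition-binding screen at 10 µM measured DNA-tagged kinase retained on immobilized active-site ligand by qPCR.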

DMPK(h) = molecular target: T2, DMPK(h) (Homo sapiens, UniProt Q09013)
T2 sequence (Q09013 1-629): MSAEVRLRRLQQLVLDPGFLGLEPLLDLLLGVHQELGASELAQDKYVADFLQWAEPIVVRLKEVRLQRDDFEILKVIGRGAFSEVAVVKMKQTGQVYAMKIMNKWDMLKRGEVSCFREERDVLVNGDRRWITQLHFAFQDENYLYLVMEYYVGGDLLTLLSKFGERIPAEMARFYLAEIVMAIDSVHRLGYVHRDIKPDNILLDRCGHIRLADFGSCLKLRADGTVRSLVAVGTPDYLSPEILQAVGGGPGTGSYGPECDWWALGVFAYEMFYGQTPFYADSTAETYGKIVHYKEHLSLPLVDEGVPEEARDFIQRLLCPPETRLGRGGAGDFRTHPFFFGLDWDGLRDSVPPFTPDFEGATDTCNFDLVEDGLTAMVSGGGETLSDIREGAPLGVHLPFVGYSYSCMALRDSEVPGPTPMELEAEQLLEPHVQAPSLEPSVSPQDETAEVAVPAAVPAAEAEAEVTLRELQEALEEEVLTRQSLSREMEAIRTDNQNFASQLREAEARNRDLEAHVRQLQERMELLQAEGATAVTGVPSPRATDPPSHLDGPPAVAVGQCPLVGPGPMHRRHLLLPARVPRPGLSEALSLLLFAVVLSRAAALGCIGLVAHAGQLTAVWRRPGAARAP
Method in brief: as §1

DYRK2(h) = molecular target: T3, DYRK2(h) (Homo sapiens, UniProt Q92630)
T3 sequence (Q92630 1-601): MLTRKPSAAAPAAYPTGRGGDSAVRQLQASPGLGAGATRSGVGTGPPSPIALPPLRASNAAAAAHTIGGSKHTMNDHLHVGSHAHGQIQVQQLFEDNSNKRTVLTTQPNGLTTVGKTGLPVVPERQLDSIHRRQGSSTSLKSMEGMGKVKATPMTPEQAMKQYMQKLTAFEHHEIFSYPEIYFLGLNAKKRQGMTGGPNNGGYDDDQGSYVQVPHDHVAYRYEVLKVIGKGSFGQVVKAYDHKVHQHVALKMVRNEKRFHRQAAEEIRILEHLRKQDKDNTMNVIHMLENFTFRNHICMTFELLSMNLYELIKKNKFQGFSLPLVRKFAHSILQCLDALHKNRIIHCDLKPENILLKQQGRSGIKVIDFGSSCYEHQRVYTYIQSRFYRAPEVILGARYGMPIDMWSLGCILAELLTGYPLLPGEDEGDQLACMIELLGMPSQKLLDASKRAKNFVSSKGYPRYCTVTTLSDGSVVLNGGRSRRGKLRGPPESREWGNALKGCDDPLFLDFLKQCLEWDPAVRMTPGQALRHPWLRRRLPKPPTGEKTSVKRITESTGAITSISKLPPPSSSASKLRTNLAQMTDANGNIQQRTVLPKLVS
Method in brief: as §1

IKKβ(h) = molecular target: T4, IKKβ(h) (Homo sapiens, UniProt O14920)
T4 construct: gene IKBKB
T4 sequence (O14920 1-756): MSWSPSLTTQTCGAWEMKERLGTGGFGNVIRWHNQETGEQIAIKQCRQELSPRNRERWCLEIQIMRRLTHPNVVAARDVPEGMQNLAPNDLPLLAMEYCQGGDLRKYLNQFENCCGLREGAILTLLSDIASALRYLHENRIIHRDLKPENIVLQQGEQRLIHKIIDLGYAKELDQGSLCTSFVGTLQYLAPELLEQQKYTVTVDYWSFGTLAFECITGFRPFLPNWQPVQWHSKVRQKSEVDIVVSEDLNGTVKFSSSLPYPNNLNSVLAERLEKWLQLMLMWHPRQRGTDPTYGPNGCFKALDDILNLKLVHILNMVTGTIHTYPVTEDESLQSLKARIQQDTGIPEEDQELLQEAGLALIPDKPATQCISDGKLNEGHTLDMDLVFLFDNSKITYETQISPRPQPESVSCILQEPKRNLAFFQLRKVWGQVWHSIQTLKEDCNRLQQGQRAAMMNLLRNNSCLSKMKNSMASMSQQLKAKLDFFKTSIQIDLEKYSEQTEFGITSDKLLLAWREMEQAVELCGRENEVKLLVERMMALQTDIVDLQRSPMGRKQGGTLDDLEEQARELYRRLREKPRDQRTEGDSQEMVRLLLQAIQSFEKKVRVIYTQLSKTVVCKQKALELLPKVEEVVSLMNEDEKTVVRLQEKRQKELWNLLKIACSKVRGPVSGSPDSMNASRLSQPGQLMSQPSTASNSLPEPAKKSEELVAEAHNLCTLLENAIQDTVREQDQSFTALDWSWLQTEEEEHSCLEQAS
Method in brief: as §1

Lyn(h) = Lyn(h) (Homo sapiens, UniProt P07948)
Method in brief: as §1

MRCKγ(h) = molecular target: T5, MRCKγ(h) (Homo sapiens, UniProt Q6DT37)
T5 construct: gene CDC42BPG
Method in brief: as §1

[1] = read-out: Residual activity (%) Spautin-1 5aa
[2] = read-out: Residual activity (%) 5as
[3] = read-out: Residual activity (%) 5at
[4] = read-out: Residual activity (%) 5ay

Chain of Lyn(h) (P07948 whole entry): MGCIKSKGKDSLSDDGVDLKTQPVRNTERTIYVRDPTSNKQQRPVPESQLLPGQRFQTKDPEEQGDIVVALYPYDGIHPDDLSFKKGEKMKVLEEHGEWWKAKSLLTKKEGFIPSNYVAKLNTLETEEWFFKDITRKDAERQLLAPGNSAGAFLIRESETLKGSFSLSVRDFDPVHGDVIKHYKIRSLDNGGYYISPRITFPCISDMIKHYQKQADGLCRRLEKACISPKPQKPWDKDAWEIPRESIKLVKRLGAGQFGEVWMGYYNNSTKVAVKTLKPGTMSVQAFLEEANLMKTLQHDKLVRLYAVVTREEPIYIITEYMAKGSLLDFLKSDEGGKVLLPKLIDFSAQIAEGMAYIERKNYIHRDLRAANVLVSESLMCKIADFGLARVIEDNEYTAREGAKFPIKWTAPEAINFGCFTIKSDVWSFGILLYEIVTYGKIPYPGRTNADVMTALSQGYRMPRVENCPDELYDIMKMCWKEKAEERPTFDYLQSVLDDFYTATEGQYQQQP
T5 sequence (Q6DT37 whole entry): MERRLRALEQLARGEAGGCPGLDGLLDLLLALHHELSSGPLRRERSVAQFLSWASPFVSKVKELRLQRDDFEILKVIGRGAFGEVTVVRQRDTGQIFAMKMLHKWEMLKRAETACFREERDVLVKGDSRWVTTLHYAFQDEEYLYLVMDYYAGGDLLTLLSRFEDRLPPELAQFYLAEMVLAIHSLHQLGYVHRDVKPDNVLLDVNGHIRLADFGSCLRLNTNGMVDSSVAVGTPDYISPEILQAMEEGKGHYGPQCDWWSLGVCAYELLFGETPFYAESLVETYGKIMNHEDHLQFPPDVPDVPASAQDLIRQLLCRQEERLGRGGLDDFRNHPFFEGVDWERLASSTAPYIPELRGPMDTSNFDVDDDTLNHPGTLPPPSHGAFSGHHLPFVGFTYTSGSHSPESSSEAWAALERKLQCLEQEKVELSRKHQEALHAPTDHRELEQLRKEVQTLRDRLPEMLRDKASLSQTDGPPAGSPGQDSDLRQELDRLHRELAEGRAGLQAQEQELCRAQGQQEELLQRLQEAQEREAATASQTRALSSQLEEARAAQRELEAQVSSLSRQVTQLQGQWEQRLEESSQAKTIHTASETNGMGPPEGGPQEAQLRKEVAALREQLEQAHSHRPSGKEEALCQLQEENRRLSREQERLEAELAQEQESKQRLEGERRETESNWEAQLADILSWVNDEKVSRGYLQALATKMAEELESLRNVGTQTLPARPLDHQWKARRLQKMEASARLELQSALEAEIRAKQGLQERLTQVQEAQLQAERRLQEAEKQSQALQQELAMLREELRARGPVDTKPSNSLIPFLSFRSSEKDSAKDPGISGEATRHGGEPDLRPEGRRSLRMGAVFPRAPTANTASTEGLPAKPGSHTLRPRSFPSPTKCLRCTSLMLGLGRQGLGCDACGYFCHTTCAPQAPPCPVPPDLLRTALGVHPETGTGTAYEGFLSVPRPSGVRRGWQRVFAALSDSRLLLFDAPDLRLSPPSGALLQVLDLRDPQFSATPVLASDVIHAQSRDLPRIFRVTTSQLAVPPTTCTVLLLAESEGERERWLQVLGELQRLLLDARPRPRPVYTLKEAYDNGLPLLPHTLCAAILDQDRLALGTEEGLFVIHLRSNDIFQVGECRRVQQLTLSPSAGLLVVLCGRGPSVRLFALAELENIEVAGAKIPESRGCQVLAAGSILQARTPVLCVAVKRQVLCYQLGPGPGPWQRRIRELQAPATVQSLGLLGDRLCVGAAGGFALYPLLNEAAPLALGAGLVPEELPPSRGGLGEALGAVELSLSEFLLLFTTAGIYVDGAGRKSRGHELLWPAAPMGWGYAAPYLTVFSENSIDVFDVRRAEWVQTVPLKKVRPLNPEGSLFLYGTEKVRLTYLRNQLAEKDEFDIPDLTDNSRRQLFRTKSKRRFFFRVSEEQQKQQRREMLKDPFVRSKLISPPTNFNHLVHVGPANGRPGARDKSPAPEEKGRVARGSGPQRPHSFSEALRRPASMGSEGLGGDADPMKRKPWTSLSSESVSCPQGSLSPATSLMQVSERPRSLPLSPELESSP
T1 sequence (Q13131 whole entry): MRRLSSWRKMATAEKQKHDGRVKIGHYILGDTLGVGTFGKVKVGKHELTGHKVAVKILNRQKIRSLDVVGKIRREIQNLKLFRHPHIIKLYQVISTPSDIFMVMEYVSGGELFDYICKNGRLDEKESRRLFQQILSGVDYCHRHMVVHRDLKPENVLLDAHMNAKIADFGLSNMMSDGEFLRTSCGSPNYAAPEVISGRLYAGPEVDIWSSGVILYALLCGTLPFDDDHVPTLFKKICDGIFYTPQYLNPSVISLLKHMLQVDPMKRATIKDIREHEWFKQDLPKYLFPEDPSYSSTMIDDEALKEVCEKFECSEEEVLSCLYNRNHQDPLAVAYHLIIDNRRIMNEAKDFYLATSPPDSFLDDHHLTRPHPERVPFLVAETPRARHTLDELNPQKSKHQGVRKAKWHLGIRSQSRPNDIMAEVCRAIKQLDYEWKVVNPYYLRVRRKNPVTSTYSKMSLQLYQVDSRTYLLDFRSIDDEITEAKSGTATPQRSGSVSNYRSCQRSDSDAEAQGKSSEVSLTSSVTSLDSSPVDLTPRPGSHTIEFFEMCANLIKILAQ
T1 sequence (P54619 whole entry partner): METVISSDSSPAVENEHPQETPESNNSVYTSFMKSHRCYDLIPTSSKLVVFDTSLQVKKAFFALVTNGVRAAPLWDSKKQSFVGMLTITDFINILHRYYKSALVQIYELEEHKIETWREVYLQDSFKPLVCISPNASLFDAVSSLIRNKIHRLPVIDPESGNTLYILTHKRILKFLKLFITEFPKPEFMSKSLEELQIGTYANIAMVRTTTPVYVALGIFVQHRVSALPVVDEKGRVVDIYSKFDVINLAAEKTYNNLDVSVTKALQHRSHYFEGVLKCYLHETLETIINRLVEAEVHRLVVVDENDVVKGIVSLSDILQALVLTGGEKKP
T1 sequence (Q9Y478 whole entry partner): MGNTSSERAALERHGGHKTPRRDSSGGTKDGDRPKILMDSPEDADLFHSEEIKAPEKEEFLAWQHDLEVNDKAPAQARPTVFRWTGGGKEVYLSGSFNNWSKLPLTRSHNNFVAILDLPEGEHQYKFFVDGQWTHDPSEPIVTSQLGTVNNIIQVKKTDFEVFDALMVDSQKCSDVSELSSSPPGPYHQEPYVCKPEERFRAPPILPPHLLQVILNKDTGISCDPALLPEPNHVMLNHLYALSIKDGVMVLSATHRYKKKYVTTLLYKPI

In the case of `Fc1ccc(CNc2ncnc3ccc(F)cc23)cc1` [5aa, 6-Fluoro-N-(4-fluorobenzyl)-4-Quinazolinamine], the remaining activity at 10 µM (AMPKα1(h); [1]) is reported as 110%, the remaining activity at 10 µM (DMPK(h); [1]) is reported as 79% and the remaining activity at 10 µM (DYRK2(h); [1]) is reported as 99%. The remaining activity at 10 µM (IKKβ(h); [1]) was 106%, the remaining activity at 10 µM (Lyn(h); [1]) was 103% and the remaining activity at 10 µM (MRCKγ(h); [1]) was 105%.
`Fc1ccc(CCNc2ncnc3ccc(F)cc23)cc1` [5as, 6-Fluoro-N-[2-(4-Fluorophenyl)Ethyl]-4-Quinazolinamine] gave a remaining activity at 10 µM (AMPKα1(h); [2]) of 93%, a remaining activity at 10 µM (DMPK(h); [2]) of 90% and a remaining activity at 10 µM (DYRK2(h); [2]) of 100%. The remaining activity at 10 µM (IKKβ(h); [2]) was 110%, the remaining activity at 10 µM (Lyn(h); [2]) was 89% and the remaining activity at 10 µM (MRCKγ(h); [2]) was 98%.
`Fc1ccc2ncnc(NCCc3ccc(Cl)cc3)c2c1` [5at, N-[2-(4-Chlorophenyl)Ethyl]-6-Fluoro-4-Quinazolinamine] gave a remaining activity at 10 µM (AMPKα1(h); [3]) of 85%, a remaining activity at 10 µM (DMPK(h); [3]) of 80% and a remaining activity at 10 µM (DYRK2(h); [3]) of 103%. It also gave a remaining activity at 10 µM (IKKβ(h); [3]) of 98%, a remaining activity at 10 µM (Lyn(h); [3]) of 91% and a remaining activity at 10 µM (MRCKγ(h); [3]) of 102%.
Molecule `COc1ccc2ncnc(Nc3cccc(F)c3)c2c1` [5ay, N-(3-Fluorophenyl)-6-Methoxy-4-Quinazolinamine] has a remaining activity at 10 µM (AMPKα1(h); [4]) of 100%, a remaining activity at 10 µM (DMPK(h); [4]) of 99% and a remaining activity at 10 µM (DYRK2(h); [4]) of 64%. The remaining activity at 10 µM (IKKβ(h); [4]) was 107%, the remaining activity at 10 µM (Lyn(h); [4]) was 80% and the remaining activity at 10 µM (MRCKγ(h); [4]) was 92%.
